Reference: ChEMBL document CHEMBL1141584, “Synthesis, biological evaluation and molecular modelling studies of methyleneimidazole substituted biaryls as inhibitors of human 17alpha-hydroxylase-17,20-lyase (CYP17). Part I: Heterocyclic modifications of the core structure” (Bioorg Med Chem, 2008)

What was measured:
[1] = biological target: T1, Steroid 17-alpha-hydroxylase/17,20 lyase (Homo sapiens, UniProt P05093); experiment: Inhibition of human CYP17 expressed in Escherichia coli co-expressed with NADPH-P450 reductase at 0.2 uM
T1 sequence (P05093 whole entry): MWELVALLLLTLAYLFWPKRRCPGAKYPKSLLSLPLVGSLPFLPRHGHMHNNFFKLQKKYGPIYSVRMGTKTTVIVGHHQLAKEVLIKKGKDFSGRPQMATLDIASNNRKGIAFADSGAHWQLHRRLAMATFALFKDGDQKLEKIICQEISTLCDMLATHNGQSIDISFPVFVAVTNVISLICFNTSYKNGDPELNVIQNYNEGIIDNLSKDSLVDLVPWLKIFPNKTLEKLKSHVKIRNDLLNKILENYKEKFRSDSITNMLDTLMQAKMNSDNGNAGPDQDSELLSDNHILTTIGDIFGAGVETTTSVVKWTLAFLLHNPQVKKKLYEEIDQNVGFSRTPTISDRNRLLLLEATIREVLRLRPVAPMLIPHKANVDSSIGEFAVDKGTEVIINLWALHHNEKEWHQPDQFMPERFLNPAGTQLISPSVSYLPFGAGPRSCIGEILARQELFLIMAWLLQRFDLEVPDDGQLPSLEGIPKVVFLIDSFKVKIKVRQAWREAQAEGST

[2] = biological target: T1, Steroid 17-alpha-hydroxylase/17,20 lyase; experiment: Inhibition of human CYP17 expressed in Escherichia coli co-expressed with NADPH-P450 reductase at 2 uM
[3] = biological target: T1, Steroid 17-alpha-hydroxylase/17,20 lyase; experiment: Inhibition of human CYP17 expressed in Escherichia coli co-expressed with NADPH-P450 reductase
CYP3A4 [4] = biological target: T2, CYP3A4 (Homo sapiens, UniProt P08684); experiment: Inhibition of recombinant CYP3A4 at 10 uM; type: ADME
CYP3A4 [5] = biological target: T2, CYP3A4; experiment: Inhibition of recombinant CYP3A4 at 1 uM; type: ADME
CYP2D6 [6] = biological target: T3, CYP2D6 (Homo sapiens, UniProt P10635); experiment: Inhibition of recombinant CYP2D6 at 1 uM; type: ADME
CYP2D6 [7] = biological target: T3, CYP2D6; experiment: Inhibition of recombinant CYP2D6 at 10 uM; type: ADME
[8] = Terminal half life in Wistar rat plasma at 50 mg/kg, po; type: ADME, organism-based; design: dose 50 mg/kg, route oral
[9] = Total body clearance in Wistar rat at 50 mg/kg, po; type: ADME, organism-based; design: dose 50 mg/kg, route oral; settings: in vivo
CYP2C19 = CYP2C19 (Homo sapiens, UniProt P33261); experiment: Inhibition of recombinant CYP2C19 at 10 uM; type: ADME
[10] = Tmax in Wistar rat at 50 mg/kg, po; type: ADME, organism-based; design: dose 50 mg/kg, route oral; settings: in vivo
CYP2B6 [11] = biological target: T4, CYP2B6 (Homo sapiens, UniProt P20813); experiment: Inhibition of recombinant CYP2B6 at 10 uM; type: ADME
T4 sequence (P20813 whole entry): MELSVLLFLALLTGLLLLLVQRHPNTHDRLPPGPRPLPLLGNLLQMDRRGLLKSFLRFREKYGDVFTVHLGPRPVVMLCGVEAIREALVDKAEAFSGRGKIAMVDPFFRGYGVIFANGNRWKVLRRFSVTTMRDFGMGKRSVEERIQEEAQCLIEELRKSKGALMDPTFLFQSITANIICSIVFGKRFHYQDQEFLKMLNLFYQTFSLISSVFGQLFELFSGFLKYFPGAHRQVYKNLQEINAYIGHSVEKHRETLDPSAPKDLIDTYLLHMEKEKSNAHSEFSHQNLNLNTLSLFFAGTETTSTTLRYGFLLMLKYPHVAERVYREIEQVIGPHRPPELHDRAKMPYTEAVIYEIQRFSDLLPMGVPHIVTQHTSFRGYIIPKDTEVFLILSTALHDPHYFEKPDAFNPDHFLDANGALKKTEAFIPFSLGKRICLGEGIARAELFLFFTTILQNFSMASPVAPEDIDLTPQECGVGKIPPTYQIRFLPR

CYP2B6 [12] = biological target: T4, CYP2B6; experiment: Inhibition of recombinant CYP2B6 at 1 uM; type: ADME
[13] = Cmax in Wistar rat at 50 mg/kg, po; type: ADME, organism-based; design: dose 50 mg/kg, route oral; settings: in vivo
[14] = biological target: T5, Steroid 17-alpha-hydroxylase/17,20 lyase (Rattus norvegicus, UniProt P11715); experiment: Inhibition of Sprague-Dawley rat testicular CYP17
T5 sequence (P11715 whole entry): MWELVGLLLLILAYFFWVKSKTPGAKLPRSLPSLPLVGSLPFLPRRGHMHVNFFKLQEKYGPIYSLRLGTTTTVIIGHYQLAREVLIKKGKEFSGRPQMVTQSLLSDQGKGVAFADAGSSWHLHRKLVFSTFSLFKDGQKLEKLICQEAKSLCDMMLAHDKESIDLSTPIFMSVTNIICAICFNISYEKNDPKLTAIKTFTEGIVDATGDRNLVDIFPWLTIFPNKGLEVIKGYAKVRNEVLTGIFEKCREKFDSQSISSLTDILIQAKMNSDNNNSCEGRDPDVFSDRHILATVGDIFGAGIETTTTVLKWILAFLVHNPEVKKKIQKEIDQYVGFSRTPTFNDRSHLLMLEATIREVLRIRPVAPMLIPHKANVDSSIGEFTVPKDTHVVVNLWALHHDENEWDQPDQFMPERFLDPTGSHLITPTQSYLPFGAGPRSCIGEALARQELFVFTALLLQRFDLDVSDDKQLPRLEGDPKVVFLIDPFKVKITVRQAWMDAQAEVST

[15] = AUC (0 to infinity) in Wistar rat at 50 mg/kg, po; type: ADME, organism-based; design: time infinity, dose 50 mg/kg, route oral; settings: plasma
[16] = biological target: T1, Steroid 17-alpha-hydroxylase/17,20 lyase; experiment: Inhibition of human CYP17 expressed in Escherichia coli co-expressed with NADPH-P450 reductase at 1 uM

T2 sequence (P08684 whole entry): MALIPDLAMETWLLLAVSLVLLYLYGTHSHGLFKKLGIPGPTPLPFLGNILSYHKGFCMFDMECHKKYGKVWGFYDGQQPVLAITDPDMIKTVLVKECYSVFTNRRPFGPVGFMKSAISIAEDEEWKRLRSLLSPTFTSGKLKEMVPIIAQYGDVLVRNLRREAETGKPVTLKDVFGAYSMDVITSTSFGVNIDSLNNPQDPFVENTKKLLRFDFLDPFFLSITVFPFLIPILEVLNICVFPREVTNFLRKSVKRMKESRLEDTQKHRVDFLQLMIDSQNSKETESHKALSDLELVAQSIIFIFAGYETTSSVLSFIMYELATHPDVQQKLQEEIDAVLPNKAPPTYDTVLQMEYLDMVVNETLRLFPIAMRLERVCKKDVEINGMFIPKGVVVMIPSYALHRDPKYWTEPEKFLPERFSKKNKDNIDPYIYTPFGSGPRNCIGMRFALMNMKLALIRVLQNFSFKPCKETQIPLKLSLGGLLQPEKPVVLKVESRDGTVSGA
Chain of CYP2C19 (P33261 whole entry): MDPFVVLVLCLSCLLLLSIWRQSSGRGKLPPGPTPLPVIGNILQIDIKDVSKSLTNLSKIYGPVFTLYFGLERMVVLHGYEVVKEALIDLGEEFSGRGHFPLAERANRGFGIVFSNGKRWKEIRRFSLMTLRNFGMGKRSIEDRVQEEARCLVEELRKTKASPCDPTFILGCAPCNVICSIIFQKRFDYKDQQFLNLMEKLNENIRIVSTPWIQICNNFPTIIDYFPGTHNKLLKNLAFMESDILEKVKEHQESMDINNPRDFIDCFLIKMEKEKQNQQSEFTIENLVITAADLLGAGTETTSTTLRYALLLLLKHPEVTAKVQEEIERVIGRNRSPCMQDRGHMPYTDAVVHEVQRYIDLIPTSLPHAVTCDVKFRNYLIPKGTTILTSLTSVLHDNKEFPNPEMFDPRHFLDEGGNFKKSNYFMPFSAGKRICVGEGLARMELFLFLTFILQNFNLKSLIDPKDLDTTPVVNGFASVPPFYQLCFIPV
T3 sequence (P10635 whole entry): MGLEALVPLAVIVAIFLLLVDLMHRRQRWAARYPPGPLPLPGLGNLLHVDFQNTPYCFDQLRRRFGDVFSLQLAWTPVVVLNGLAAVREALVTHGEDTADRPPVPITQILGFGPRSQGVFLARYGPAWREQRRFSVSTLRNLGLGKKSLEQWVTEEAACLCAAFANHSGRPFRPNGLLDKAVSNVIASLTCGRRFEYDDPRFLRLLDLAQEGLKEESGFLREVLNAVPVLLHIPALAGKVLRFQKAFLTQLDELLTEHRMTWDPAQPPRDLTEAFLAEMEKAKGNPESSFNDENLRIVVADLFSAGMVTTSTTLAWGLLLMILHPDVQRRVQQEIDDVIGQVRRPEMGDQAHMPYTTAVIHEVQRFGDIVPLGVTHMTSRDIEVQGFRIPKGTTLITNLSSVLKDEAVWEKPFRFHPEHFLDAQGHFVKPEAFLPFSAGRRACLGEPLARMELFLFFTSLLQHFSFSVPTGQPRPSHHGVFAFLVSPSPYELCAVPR

Structure (SMILES) | inhibition at 0.2 µM [1] [%] | inhibition at 2 µM [2] [%] | further results
COc1ccccc1-c1ccc(Cn2ccnc2)cn1 | 0 | 5 | –
Fc1ccc(-c2csc(Cn3ccnc3)c2)cc1F | 7 | 25 | –
Fc1ccc(-c2ccc(Cn3ccnc3)cn2)cc1F | 0 | 0 | –
CC(C)C(O)(c1ccc(-c2ccsc2)cc1)c1c[nH]cn1 (configuration not stated) | 7 | 49 | –
CCC(c1ccc(-c2cscc2C)cc1)n1ccnc1 (configuration not stated) | 27 | 84 | IC50 [3]: 0.584 µM
c1cn(Cc2ccc(-c3cncnc3)cc2)cn1 | 5 | 3 | –
Cc1cscc1-c1ccc(Cn2ccnc2)cc1 | 0 | 27 | –
c1ccc(-c2csc(Cn3ccnc3)c2)cc1 | 0 | 21 | –
CCC(c1ccc(-c2cscc2C)cc1F)n1ccnc1 (configuration not stated) | 41 | 92 | IC50 [3]: 0.236 µM; inhibition at 10 µM (CYP3A4 [4]): 97%; inhibition at 1 µM (CYP3A4 [5]): 88%
CCC(c1ccc(-c2ccsc2Cl)cc1)n1ccnc1 (configuration not stated) | 40 | 85 | IC50 [3]: 0.263 µM; inhibition at 10 µM (CYP3A4 [4]): 97%; inhibition at 1 µM (CYP3A4 [5]): 87%
COc1ccc(-c2csc(Cn3ccnc3)c2)cc1 | 0 | 13 | –
c1cncc(-c2ccc(Cn3ccnc3)cc2)c1 | 2 | 14 | –
Fc1ccc(-c2csc(Cn3ccnc3)c2)cc1 | 0 | 20 | –
c1ccc(-c2ccc(Cn3ccnc3)cn2)cc1 | 0 | 4 | –
C[C@]12CC[C@H](O)CC1=CC[C@@H]1[C@@H]2CC[C@]2(C)C(c3cccnc3)=CC[C@@H]12 [ABIRATERONE] | – | – | inhibition at 1 µM (CYP2D6 [6]): 7%; inhibition at 10 µM (CYP2D6 [7]): 7%; half-life [8]: 1.6 h; CL/F [9]: 11.2 L/h/kg; inhibition at 10 µM (CYP2C19): 21%; Tmax [10]: 2 h; inhibition at 10 µM (CYP2B6 [11]): 11%; inhibition at 1 µM (CYP2B6 [12]): 2%; Cmax [13]: 0.592 µg/mL; inhibition at 10 µM (CYP3A4 [4]): 25%; IC50 [14]: 0.22 µM; AUC(0-inf) [15]: 4.01 µg·h/mL; inhibition at 1 µM (CYP3A4 [5]): 4%
CC(=O)N1CCN(c2ccc(OCC3COC(Cn4ccnc4)(c4ccc(Cl)cc4Cl)O3)cc2)CC1 (configuration not stated) [KETOCONAZOLE] | – | – | inhibition at 10 µM (CYP2C19): 79%; inhibition at 10 µM (CYP2B6 [11]): 57%; inhibition at 1 µM (CYP2B6 [12]): 11%; inhibition at 1 µM [16]: 19%
